Columns and labels:
[1] = system: mitochondrial complex I; test: Mitochondrial ETC complex activity using PMP-permeabilized cells; assay type: cell-based
Method: Mitochondrial ETC complex activity measurements using PMP-Measurements of mitochondrial ETC complex activity were performed using the Agilent Seahorse Assay with XF PMP (Agilent, Santa Clara, CA) according to the manufacturer's instructions. Mitochondrial assay solution (MAS) was prepared with 220 mM mannitol, 70 mM sucrose, 10 mM KH2PO4, 5 mM MgCl2, 2 mM HEPES, 1 mM EGTA, and 0.2% (w/v) fatty acid free BSA. Cells were gen Ly washed with MAS and cell media was replaced with MAS supplemented with 4 mM adenosine diphosphate (ADP), 10 mM pyruvate, and 1 nM PMP. After calibration, the test was prompμLy carried out by measuring baseline with two cycles of 0.5 min mixing, 0.5 min waiting, and 2 min measuring. Following the baseline measurements, DMSO, test compounds or 2 μM rotenone, 10 mM succinate, 2 μM antimycin A, and a combination of 10 mM ascorbate and 100 μM TMPD were sequentially injected. The experiment data were then normalized to cell counts using Biotek Cytation 1 (BioTek Instruments, Winooski, VT, USA).
Mitochondrial ETC complex activity was measured using the Agilent Seahorse Assay with XF permeabilizer (PMP; Agilent) in compliance with the manufacturer's protocol. […] Following calibration, the baseline OCR was measured with cycles of 0.5-minute mixing, 0.5-minute waiting, and 2-minute measuring to perform the test. […]

[2] = system: LS174T cells; test: Seahorse oxygen consumption rate assay; assay type: cell-based; conditions: rotenone/antimycin A replaced with compound
Method: Seahorse oxygen consumption rate assay-Seahorse assays were conducted in accordance with a published protocol (50). Mitochondrial bioenergetic measurements were performed using the Seahorse XFe96 Extracellular Flow Analyzer (Agilent Technologies, Santa Clara, CA, USA) to measure the oxygen consumption rate (OCR) in different respiratory states. 2.5×10^4 LS174T cells in 80 μL medium were seeded in XF96 Cell Culture microplate and cultured overnight. Then cell culture media were replaced with Seahorse XF modified media before cells were treated. […] To test whether compounds were ETC complex I or III inhibitors, rotenone and antimycin A were replaced with DMSO, or compounds in DMSO solution.
The Seahorse assays were performed in compliance with a pre-announced procedure (41). Oxygen consumption was measured using the Seahorse XFe96 Extracellular Flow Analyzer (Agilent Technologies, Santa Clara, CA, USA). 2.5×10^4 LS174T cells were seeded in XF96 Cell Culture microplate in 80 μL culture medium and incubated overnight. On the following day, the cell culture media were exchanged with Seahorse XF modified media. 1.0 μmol/L oligomycin, 1.0 μmol/L FCCP, and a mixture of 1.0 μmol/L rotenone and 1.0 μmol/L antimycin A were sequentially added during the measurements. […]

[3] = system: Pt2377 cells; test: Cell proliferation inhibition assay, Pt2377; assay type: cell-based
Method: Cell proliferation inhibition assay-Cell proliferation inhibition assay was performed as previously reported (48). All compounds to be tested were dissolved at 10 mM in DMSO. The cells were seeded into 12-well plates at a density of 40,000 cells per well in 1 mL of culture medium and were cultured overnight at 37° C. Either 1 μL of the compounds or the vehicle control (DMSO) was added to the cells. After 5 days, the medium was removed, and 200 μL of 0.25% trypsin was added. The cells were resuspended in 800 μL phosphate-buffered saline (PBS) and counted with Vi-CELL XR 2.03 (Beckman Coulter, Inc. USA). The ratio R of the number of viable cells in the compound-treated group to the number of viable cells in the DMSO-treated group was called relative growth rate, and the growth inhibition was calculated as (1−R)*100.

[4] = system: SKOV-3 cells; conditions: growth inhibition; cited from earlier work
[5] = system: BT549, MDA-MB-436 and HCC70; conditions: 3 μM; cited from earlier work
[6] = system: LS174T xenografts; test: LS174T xenografts in SCID mice; assay type: in vivo, mouse
Method: In vivo evaluation of anti-cancer activity in LS174T xenografts—The mouse studies were conducted with the approval of the University of Kentucky Institutional Animal Care and Use Committee (2020-3531). All methods were carried out in compliance with the relevant guidelines and regulations according to protocols. The LS174T cells in exponential growth phase were trypsinized and resuspended in 50% Matrigel (Corning, Glendale, Arizona). Cells (1.2×10^6) were subcutaneously injected on the lower flanks of severe combined immunodeficient mice. The tumor volumes were calculated based on the formula Length×width^2/2. When tumors reached an average volume of 100 mm^3, the mice were divided into control and treatment groups (3 male and 3 female mice/group, two tumors on each mouse). After tumors were established, BAY-876 was given to the mice by gavage feeding to the BAY-876 group at the dose of 3 mg/kg/day. DBI-1 was daily intraperitoneally (i.p.) administered to the DBI-1 group at dose of 40 mg/kg mouse body weight. Mice in the combination treatment group were administered both oral BAY-876 at the dose of 3 mg/kg/day and i.p. DBI-1 at dose of 40 mg/kg mouse body weight. Tumors and mouse weights were measured every three days and the experiment was stopped at day 12. Tumors were isolated and fixed in 10% neutral buffered formalin. Tumor sections were analyzed with H&E and Ki-67 staining at Markey Cancer Center's Biospecimen Procurement and Translational Pathology Shared Resource Facility (BPTP SRF).

[7] = system: OVCAR-3 cells; conditions: growth inhibition; cited from earlier work
[8] = administered in vivo; cited from earlier work
[9] = system: SKOV-3 ovarian cancer xenograft; conditions: 4.5 mg/kg/day for 4 weeks; cited from earlier work

| SMILES | ETC complex inhibited (conclusion of Seahorse assays) ([1]; ETC complex-specific inhibitors and PMP-permeabilized cells) | pyruvate/NADH-linked respiration ([1]; PMP-permeabilized CRC cells) | oxygen consumption rate (OCR) [2] | inhibition of proliferation of Pt2377 cells [3] | IC50 [4] [nM] | growth of TNBC cell lines BT549, MDA-MB-436 and HCC70 [5] | tumor growth ([6]; BAY-876 3 mg/kg/day oral, DBI-1 40 mg/kg/day i.p., two weeks) | toxicity based on mice body weight growth rate ([6]; BAY-876 3 mg/kg/day, DBI-1 40 mg/kg/day) | IC50 [7] [nM] | oral availability [8] | average weight loss compared to the control group [9] [%] | reduction of average tumor volumes [9] [%] | reduction of tumor weights [9] [%] |
| --- | --- | --- | --- | --- | --- | --- | --- | --- | --- | --- | --- | --- | --- |
| O=c1c(-c2ccc(Cl)c(Cl)c2)coc2cc(OCCN3CCN(CCO)CC3)ccc12 [DBI-6, 3-(3,4-dichlorophenyl)-7-(2-(4-(2-hydroxyethyl)piperazin-1-yl)ethoxy)-4H-chromen-4-one] | complex I inhibitor | reduced pyruvate/NADH-linked respiration | suppressed OCR in a similar manner to rotenone/antimycin A | – | – | – | – | – | – | – | – | – | – |
| Cc1c(NC(=O)c2cc(C(N)=O)nc3cc(F)ccc23)c(C(F)(F)F)nn1Cc1ccc(C#N)cc1 [BAY-876, N^4-[1-(4-cyanobenzyl)-5-methyl-3-(trifluoromethyl)-1H-pyrazol-4-yl]-7-fluoroquinoline-2,4-dicarboxamide] | – | – | – | inhibited the proliferation of these cell lines at nanomolar concentrations | 188 | did not inhibit the growth | inhibited tumor growth | No significant toxicity | 60 | orally available | 18 | 68 | 66 |

Source: patent publication US20250042880A1 (UNIVERSITY OF KENTUCKY RESEARCH FOUNDATION, priority 2021, published 2025)
